In PubChem BioAssay AID179 (DTP/NCI, 2004):
Several values for one entry are separate records, joined by “and”; a condition that tells them apart may be missing. Equal entries are not always repeated. Activity calls are given as the source filed them.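 How the source made its calls: active means compounds giving half or more protection of infected cells from virus-caused growth loss, again on retest; inactive means the rest.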 Where a SMILES comes first, the peptide text is derived from it. The star is where a group is joined. Cbz = O=C(OCc1ccccc1)*

Test system: CEM cells HIV-1 protection, formazan growth assay
Test: NCI AIDS Antiviral Assay
Settings: for IC50: measured here: growth of uninfected CEM cells
How it was run: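 Category rules: moderately active means at least 50% protection on retest, and confirmed active means 100% protection reproducibly. The underlying data came from a formazan growth assay in HIV-1-infected CEM cells.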

Structure (SMILES) | EC50 | IC50 | outcome
CC1=NC(=O)CC2=C1C(C)N(Cc1ccccc1)C2=O (stereo not given) | > 355 µM | > 355 µM | 
COc1ccccc1NC(=O)C1=C(C)NC(C)=C(C(=O)Nc2ccccc2OC)C1C1=CC=COC1 | > 14.8 µM | > 14.8 µM | 
Cc1ccc(C2SCC(=O)N2c2ccc(-c3ccc(-n4c(-c5ccccc5)nc5ccccc5c4=O)cc3)cc2)cc1 (stereo not given) | > 191 µM | 35.5 µM | 
Nc1ncnc2c1ncn2[C@H]1CC(CO)CO1 (stereo not given in full) | > 661 µM | > 661 µM | 
CCOC(=O)c1nc2ccc(C(F)(F)F)cc2nc1NCc1ccc(F)cc1 | > 200 µM | 23.4 µM | 
CNC(=S)/N=C(\N)N(C)C |  |  | inactive
O=S(=O)(O)c1ccc2c(N=Nc3ccc(S(=O)(=O)O)c4ccccc34)c(O)c(S(=O)(=O)O)cc2c1 | > 100 µM | > 100 µM | inactive
COC(=O)/C(=N\NC(=O)c1ccccc1O)C(C#N)c1ccccc1 (stereo not given) | > 741 µM | 5.62 µM | 
O=C(NC12CC3CC(CC(C3)C1)C2)C(=O)c1c[nH]c2ccc([N+](=O)[O-])cc12 | > 200 µM | 30.2 µM | 
CC(C)N(C(=O)C12CC3CC(CC(C3)C1)C2)C(C)C | > 135 µM | 41.7 µM | 
O=c1[nH]c2cccnc2c(=O)n1O | > 200 µM | 69.2 µM | 
C(=C\c1ccnc2ccccc12)/c1ccc2c(c1)OCO2 |  | 66.1 µM | inactive
NC(C(=O)O)/C1=C/CCCCCC1 (stereo not given) | > 200 µM | > 200 µM | 
CN(C)C(=NC#N)N(Cc1ccccc1)Cc1ccccc1 | > 200 µM | 112 µM | 
O=C(O)/C=C/S(=O)(=O)O | > 200 µM | > 200 µM | 
COc1c(NC(C)=O)cc(C)cc1NC(C)=O |  |  | inactive
CC1=C(/C=C/C(C)=C/C2CC(N(C)C)=CC(=O)O2)C(C)(C)CCC1 (stereo not given) |  |  | inactive
CCOC(=O)C1=C(C)N(C2OC(COC(=O)c3ccccc3)C(OC(=O)c3ccccc3)C2OC(=O)c2ccccc2)C(=S)NC1c1ccccc1 (stereo not given) | > 50.1 µM | > 50.1 µM | 
CN(C)CCN1C(=O)CN=C(c2ccccc2Cl)c2cc(Cl)ccc21 | > 200 µM | 117 µM | 
O=c1c(O)c(-c2ccccc2)oc2ccccc12 | > 93.3 µM | 18.6 µM | 

Structure (SMILES) | EC50 | IC50 | outcome
CCCCCCCCCCCCCCCC(=O)ON1C(=S)NC(C)(c2ccccc2)C1=S (stereo not given) | > 200 µM | 77.6 µM | 
COc1ccc(Cn2nc(OCc3ccccn3)c3cc([N+](=O)[O-])ccc32)cc1 | > 200 µM | > 200 µM | 
CC(=O)[CH-]C(C)=O.CC(=O)[CH-]C(C)=O.[CH2-]CCCCCCC.[CH2-]CCCCCCC.[Sn+4] | > 47.9 µM | > 47.9 µM | 
COc1ccc(/C=N/Nc2nc(-c3cc4oc(=O)n(C)c4cc3Cl)cs2)cc1OC | > 11.7 µM | > 11.7 µM | 
CC(=O)O[C@H]1CC[C@H]2[C@@H]3CCc4cc(O)c(I)cc4[C@H]3CC[C@]12C | > 200 µM | 12 µM | 
C[C@@H]1c2ccc3c(c2C2(O)C[C@H]4CCC1N2C4)CC1[C@H]3C[C@@H](O)C2C[C@@H](O)CC[C@@]21C (stereo not given in full) | > 30.9 µM | > 30.9 µM | 
N[C@H]1CCC[C@@H](O)C1O (stereo not given in full) | > 200 µM | > 200 µM | 
CC(C)OP(=O)(OC(C)C)C(C(C)C)N(C)/C(F)=N/C(F)(F)F (stereo not given) | > 200 µM | > 200 µM | 
O=C(O)c1c2c(nc3ccccc13)CCC2 | > 447 µM | > 447 µM | 
O=[N+]([O-])c1ccc(NC(=S)N/N=C(\c2ccccc2)c2ccccn2)cc1 | > 2 µM | > 2 µM | 
C=C(C)C(=O)OC1C/C(CO)=C\C(O)C/C(C)=C/C2OC(=O)C(=C)C21 (stereo not given) | > 724 µM | 12.3 µM | 
CCOP(=O)(/C=C/c1cc(OC)ccc1OC)OCC | > 832 µM | 355 µM and 158 µM | 
O=S(=O)(O)c1cc(O)c2c(N=Nc3ccc(Nc4ccccc4)c4c(S(=O)(=O)O)cccc34)cc(S(=O)(=O)O)cc2c1 | 112 µM | > 200 µM | 
O=[N+]([O-])c1cc(Cl)ccc1Sc1ccccc1 |  |  | inactive
N=C1N(c2ccccc2)C(=O)C23CCCC2C13N1CCOCC1 (stereo not given) | > 219 µM | > 219 µM | 
Cc1ccc(-c2cc(-c3ccccc3)c(C#N)c(=O)[nH]2)cc1 | > 66.1 µM | > 66.1 µM | 
COc1cc(/C=C2/SC(c3ccccc3)N(c3ccccc3)C2=O)cc(OC)c1OC (stereo not given) | > 20 µM | 4.47 µM | 
S=c1[nH]ncc(SCc2ccccc2)c1SCc1ccccc1 | > 200 µM | 13.2 µM | 
O=S(=O)([O-])[O-].O=c1[nH]cnc2nc[n-]c12.[Cu+2].[OH3+].[OH3+] | > 10.7 µM | > 10.7 µM | 
Clc1cccc(Cl)c1C1SCc2nc3ccccc3n21 (stereo not given) | 0.224 µM | 21.9 µM | 

Structure (SMILES) | EC50 | IC50 | outcome
COc1cc(C(=C2SCCS2)c2nccc3cc(OC)c(OC)cc23)c([N+](=O)[O-])cc1OC |  |  | inactive
CCN(CC)CCNc1ccc([N+](=O)[O-])c2nc3ccc(OC)cc3c(N)c12 | > 200 µM | 0.331 µM | 
CC(C)CCC[C@@H](C)C1CCC2[C@@H]3CC(O)C4C[C@@H](OS(=O)(=O)O)CC[C@]4(C)C3CC[C@@]21C (stereo not given in full) | > 49 µM | 24.5 µM | 
Cc1cccc2c(=O)c3c(O)cc(O)cc3[nH]c12 | > 200 µM | 14.5 µM | 
O=C1N(Cc2ccccc2)[C@H]2CS(=O)(=O)C[C@@H]2N1Cc1ccccc1 | > 200 µM | > 200 µM | 
CCOP(=O)(Nc1ccccc1P(=O)(OCC)OCC)OCC | > 200 µM | > 200 µM | 
NC(=S)N/N=C(\Cc1nc2ccc(Cl)cc2[nH]c1=O)C(=O)Nc1ccc(Cl)cc1 | > 41.7 µM | > 41.7 µM | 
CC1(C)COC(C2Cc3ccccc3C(O)(c3ccccc3)C2)=N1 (stereo not given) | > 200 µM | > 200 µM | 
CCCc1cc(=O)oc2c3c(c4c(c12)OC(C)(C)[C@@H](O)[C@H]4O)O[C@@H](C)[C@H](C)[C@@H]3O | > 200 µM | 135 µM | 
COC(=O)CN(CC(=O)NCCCBr)C1CCCCC1N(CC(=O)OC)CC(=O)OC (stereo not given) | > 200 µM | > 200 µM | 
N#CCCN(C1=NN(C(=O)CC(=O)Nc2ccc(Cl)cc2)C(c2ccccc2)C1)c1ccc(Cl)cc1 (stereo not given) | > 50.1 µM | > 50.1 µM | 
O=C(COC(=O)c1cccc2c(=O)c3ccccc3[nH]c12)Nc1ccc(C(=O)O)cc1 |  |  | inactive
Nc1ncnc2c1ncn2C1OC(CSC(F)(F)F)C(O)C1O (stereo not given) | > 708 µM | 112 µM | 
O=c1cc2c(=O)oc3cc(O)c(O)oc3c2c(O)c1O | > 324 µM | 13.8 µM | 
N#CCCC[P+](c1ccccc1)(c1ccccc1)c1ccccc1 | > 200 µM | > 200 µM | 
O=C1NC2(CCCC2)C(=O)N2CCCC12 (stereo not given) | > 129 µM | > 129 µM | 
CC1(C)Cc2c(oc3ncnc(N)c23)CS1 | > 288 µM | > 288 µM | 
CCOC(=O)/C(F)=C/c1cccc([N+](=O)[O-])c1 | > 151 µM | > 151 µM | 
CCOC(=O)CCC(NC(=O)CNC(=O)CNC(=O)C(CCC(=O)OCC)NC(=O)C(CCC(=O)OCC)NC(=O)C(CCC(=O)OCC)NC(=O)OCc1ccccc1)C(=O)NC(CCC(=O)OCC)C(=O)NC(CCC(=O)OCC)C(=O)OCC (stereo not given) (Cbz-E(OEt)E(OEt)E(OEt)GGE(OEt)E(OEt)E(OEt)-OEt; configuration not given here) | > 200 µM | > 200 µM | 
Cc1ccc(C)n1-c1ccccc1C1C=Cn2c(=O)nnc3c(OC(C)C)c(OC(C)C)c(O)c1c32 (stereo not given) | > 200 µM | 25.7 µM | 
